According to patent publication US7790143B2, “Vaccines for immunization against helicobacter” (priority 2005, dated 2010):

What was measured:
Set-up in all cases: key: R: resistant; S: susceptible; I: intermediate
H. trogontum = settings: 30 μg; taxon 9 H. trogontum; cited from earlier work
H. baculiformis M50T = experiment: Susceptibility to antimicrobials (30 μg); assay type: cell-based; settings: taxon 1 H. baculiformis (this study)
Text: Data were obtained from Bronsdon et al. (1991), Dewhirst et al. (2000a), Eaton et al. (1993), Fox et al. (1988, 1995), Hänninen et al. (1996, 2005), Jalava et al. (1997) Int J Syst Bacteriol 47, 975-982, Lee et al. (1988, Infect Immun 56, 2843-2850, 1992), Mendes et al. (1996); Patterson et al. (2000), Van den Buick et al. (2006, Int J Syst Evol Microbiol 56, 1559-1564).

H. bilis = settings: 30 μg; taxon 8 H. bilis; cited from earlier work
H. nemestrinae = settings: 30 μg; taxon 11 H. nemestrinae; cited from earlier work
H. felis = settings: 30 μg; taxon 4 H. felis; cited from earlier work
H. salomonis = settings: 30 μg; taxon 5 H. salomonis; cited from earlier work
H. mustelae = settings: 30 μg; taxon 10 H. mustelae; cited from earlier work
H. aurati = settings: 30 μg; taxon 13 H. aurati; cited from earlier work
H. muridarum = settings: 30 μg; taxon 12 H. muridarum; cited from earlier work
H. pylori = settings: 30 μg; taxon 6 H. pylori; cited from earlier work
H. bizzozeronii = settings: 30 μg; taxon 3 H. bizzozeronii; cited from earlier work
H. acinonychis = settings: 30 μg; taxon 7 H. acinonychis; cited from earlier work

Measured: Susceptibility to

CCn1cc(C(=O)O)c(=O)c2ccc(C)nc21 [Nalidixic acid]
I: H. baculiformis M50T
S: H. mustelae | H. aurati
R: all other assays above

CC(=O)OCC1=C(C(=O)O)N2C(=O)[C@@H](NC(=O)Cc3cccs3)[C@H]2SC1 [Cephalothin]
R: H. trogontum | H. baculiformis M50T | H. bilis | H. mustelae | H. aurati | H. muridarum
S: all other assays above
